# Earlier results, collected in Sander's compilation of Henry's law constants.
# Several values for one entry are separate records, joined by “and”; a condition that tells them apart may be missing. Equal values may be shown once.
# Assay: Henry solubility constant Hcp at 298.15 K (mol/(m3 Pa))
# Conditions: cited value
# [1] = reference: Burkholder et al. (2015)
# [2] = reference: Burkholder et al. (2019)
# [3] = reference: Sander et al. (2006)
# [4] = reference: Sander et al. (2011)
# [5] = reference: Barcelo and Hennion (1997)
smiles,measurement,setting,value
O=C=S [carbon oxide sulfide],Henry solubility constant Hcp,[1],0.0002
same,Henry solubility constant Hcp,[2],0.0002
same,Henry solubility constant Hcp,[3],0.0002
same,Henry solubility constant Hcp,[4],0.0002
"COC(=O)OC [carbonic acid, dimethyl ester]",Henry solubility constant Hcp,reference: Brockbank (2013),0.15
same,Henry solubility constant Hcp,[1],0.16
same,Henry solubility constant Hcp,[2],0.16
O=C(F)Cl [carbonic chloride fluoride],Henry solubility constant Hcp,reference: George et al. (1993),0.099
NCl [chloramine],Henry solubility constant Hcp,[1],0.86
same,Henry solubility constant Hcp,[2],0.86
same,Henry solubility constant Hcp,[3],0.86
same,Henry solubility constant Hcp,[4],0.86
ClC1=C(Cl)[C@]2(Cl)C3C(Cl)C(Cl)CC3[C@@]1(Cl)C2(Cl)Cl (some centres undefined) [chlordane],Henry solubility constant Hcp,[5],0.0011
CCOP(=O)(OCC)OC(=CCl)c1ccc(Cl)cc1Cl [chlorfenvinphos],Henry solubility constant Hcp,[5],35
[O][Cl+][O-] [chlorine dioxide],Henry solubility constant Hcp,[1],0.01
same,Henry solubility constant Hcp,[2],0.01
same,Henry solubility constant Hcp,[3],0.01
same,Henry solubility constant Hcp,[4],0.01
same,Henry solubility constant Hcp,reference: Young (1983),0.01
Clc1ccccc1 [chlorobenzene],Henry solubility constant Hcp,reference: Brockbank (2013),0.0026
same,Henry solubility constant Hcp,reference: Goldstein (1982),0.0025
FC(F)Cl [chlorodifluoromethane],Henry solubility constant Hcp,[1],0.00035
same,Henry solubility constant Hcp,[2],0.00035
same,Henry solubility constant Hcp,[4],0.00034
CCCl [chloroethane],Henry solubility constant Hcp,reference: Brockbank (2013),0.00081
same,Henry solubility constant Hcp,[1],0.00083
same,Henry solubility constant Hcp,[2],0.00081
same,Henry solubility constant Hcp,reference: Goldstein (1982),0.00068
C=CCl [chloroethene],Henry solubility constant Hcp,reference: Brockbank (2013),0.00043
same,Henry solubility constant Hcp,[1],0.00038
same,Henry solubility constant Hcp,[2],0.00038
[CH3][Hg][Cl] [chloromethylmercury],Henry solubility constant Hcp,reference: WHO (1990),20
FC(F)(F)Cl [chlorotrifluoromethane],Henry solubility constant Hcp,[1],9.9e-06
same,Henry solubility constant Hcp,[2],9.9e-06
same,Henry solubility constant Hcp,[4],9.9e-06
CC(C)OC(=O)Nc1cccc(Cl)c1 [chlorpropham],Henry solubility constant Hcp,[5],47
CCOP(=S)(OCC)Oc1nc(Cl)c(Cl)cc1Cl [chlorpyrifos],Henry solubility constant Hcp,[5],0.0056
same,Henry solubility constant Hcp,reference: HSDB (2015),3.4
same,Henry solubility constant Hcp,reference: Muir et al. (2004),1.8 and 2.1
Cc1ccc(NC(=O)N(C)C)cc1Cl [chlortoluron],Henry solubility constant Hcp,[5],190
c1ccc2c(c1)ccc1c3ccccc3ccc21 [chrysene],Henry solubility constant Hcp,reference: Brockbank (2013),15
same,Henry solubility constant Hcp,reference: Petrasek et al. (1983),6.6
"C[C@@H]1CCCC[C@@H]1C [cis-1,2-dimethylcyclohexane]",Henry solubility constant Hcp,reference: Brockbank (2013),2.6e-05
C/C=C\CCCC [cis-2-heptene],Henry solubility constant Hcp,reference: Brockbank (2013),2.4e-05
CN/C(=N\[N+](=O)[O-])NCc1cnc(Cl)s1 [clothianidin],Henry solubility constant Hcp,reference: MacBean (2012b),3.4e+10
CCNc1nc(Cl)nc(NC(C)(C)C#N)n1 [cyanazine],Henry solubility constant Hcp,[5],33000
O=C(O)C1(C(=O)Nc2ccc(Cl)cc2Cl)CC1 [cyclanilide],Henry solubility constant Hcp,reference: MacBean (2012b),14000
C1CCCCCC1 [cycloheptane],Henry solubility constant Hcp,reference: Brockbank (2013),6.7e-05
C1=CCCCCC1 [cycloheptene],Henry solubility constant Hcp,reference: Brockbank (2013),0.0002
NC1CCCCC1 [cyclohexanamine],Henry solubility constant Hcp,reference: Brockbank (2013),2.2
C1CCCCC1 [cyclohexane],Henry solubility constant Hcp,reference: Brockbank (2013),5.1e-05
same,Henry solubility constant Hcp,reference: Goldstein (1982),6.2e-05
O=C1CCCCC1 [cyclohexanone],Henry solubility constant Hcp,reference: Brockbank (2013),1.5
C1=CCCCC1 [cyclohexene],Henry solubility constant Hcp,reference: Brockbank (2013),0.00029
CC(=O)OC1CCCCC1 [cyclohexyl ethanoate],Henry solubility constant Hcp,reference: Brockbank (2013),0.1
C1CCCCCCC1 [cyclooctane],Henry solubility constant Hcp,reference: Brockbank (2013),7.3e-05
C1=C\CCCCCC/1 [cyclooctene],Henry solubility constant Hcp,reference: Brockbank (2013),0.00021
C1CCCC1 [cyclopentane],Henry solubility constant Hcp,reference: Brockbank (2013),5.8e-05
O=C1CCCC1 [cyclopentanone],Henry solubility constant Hcp,reference: Brockbank (2013),1.2
C1=CCCC1 [cyclopentene],Henry solubility constant Hcp,reference: Brockbank (2013),0.0002
CC(C1CC1)C(O)(Cn1cncn1)c1ccc(Cl)cc1 (centres undefined) [cyproconazole],Henry solubility constant Hcp,[5],130
COC(=O)c1c(Cl)c(Cl)c(C(=O)OC)c(Cl)c1Cl [dacthal],Henry solubility constant Hcp,reference: Muir et al. (2004),4.4
CN1CSC(=S)N(C)C1 [dazomet],Henry solubility constant Hcp,reference: MacBean (2012b),37000
CCCCCCCCCC=O [decanal],Henry solubility constant Hcp,reference: Brockbank (2013),0.0063
CCCCCCCCCC [decane],Henry solubility constant Hcp,reference: Brockbank (2013),1.3e-06
CCCCCCCCCCc1ccccc1 [decylbenzene],Henry solubility constant Hcp,reference: Brockbank (2013),7.6e-05
CC(C)SC(C)C [di-(2-propyl)-sulfide],Henry solubility constant Hcp,reference: Brockbank (2013),0.0028
CCOP(=S)(OCC)Oc1cc(C)nc(C(C)C)n1 [diazinon],Henry solubility constant Hcp,[5],0.15
same,Henry solubility constant Hcp,reference: Muir et al. (2004),46 and 92
c1ccc2c(c1)oc1ccccc12 [dibenzofuran],Henry solubility constant Hcp,reference: Brockbank (2013),0.074
same,Henry solubility constant Hcp,reference: Mackay et al. (1992b),0.091
O=C(O)C(Br)Br [dibromoethanoic acid],Henry solubility constant Hcp,[1],2300
same,Henry solubility constant Hcp,[2],2300
same,Henry solubility constant Hcp,[4],2300
